From ChEMBL document CHEMBL1132391, “The sulfonimidamide as a novel transition state analog for aspartic acid and metallo proteases” (Bioorg Med Chem Lett, 1999) come the findings set out here.

Test [1] has as its target T1, Human immunodeficiency virus type 1 protease (Human immunodeficiency virus 1, UniProt Q72874). Briefly: Tested for the inhibitory activity against HIV protease.
The target in test [2] is T2, Pepsin A (Sus scrofa, UniProt P00791). Description: Tested for the inhibitory activity against pepsin.
T2 sequence (P00791 whole entry): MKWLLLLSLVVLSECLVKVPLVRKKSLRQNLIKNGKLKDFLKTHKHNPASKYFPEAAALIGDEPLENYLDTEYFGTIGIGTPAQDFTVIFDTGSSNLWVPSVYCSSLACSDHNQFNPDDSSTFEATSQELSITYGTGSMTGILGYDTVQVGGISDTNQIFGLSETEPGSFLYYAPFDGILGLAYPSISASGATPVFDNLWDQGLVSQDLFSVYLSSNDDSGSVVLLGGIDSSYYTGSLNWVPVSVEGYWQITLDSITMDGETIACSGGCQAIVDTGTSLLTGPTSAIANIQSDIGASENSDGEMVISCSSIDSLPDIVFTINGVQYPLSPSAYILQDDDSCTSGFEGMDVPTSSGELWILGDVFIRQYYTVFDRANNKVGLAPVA
Test [3] in a line: (§1) Tested for the inhibitory activity against Carboxypeptidase A (mixture of diastereomers).
The nature of test [4]: as §1. This is another data set of the same source.
The target in test [5] is T2, Pepsin A. Description: Tested for the inhibitory activity against pepsin (Second pure eluting diastereomer ).
Test [6] deals with T1, Human immunodeficiency virus type 1 protease. Briefly: Tested for the inhibitory activity against HIV protease (Second pure eluting diastereomer ).
Test [7] has the same target. Description: Tested for the inhibitory activity against HIV protease (First pure eluting diastereomer).
The target in test [8] is T2, Pepsin A. Description: Tested for the inhibitory activity against pepsin (First pure eluting diastereomer).

Structures are written as SMILES.

As usually defined, the IC50 is the concentration that inhibits the measured activity by half. For `O=C(CCc1ccccc1)NCC(=O)OCc1ccccc1`, the IC50 (in test [1]; against Pepsin A [2]) was above 3000 µM in each case.
`O=C(CCc1ccccc1)N[C@@H](Cc1ccccc1)C(=O)O`: in test [3], the Km was 2.1.
For the molecule `N[S+]([O-])(CCc1ccccc1)=N[C@@H](Cc1ccccc1)C(=O)O` (some centres not stated), the concentration for half-maximal inhibition (IC50) in test [4] amounted to 20 µM.
For the molecule `COC(=O)[C@H](Cc1ccccc1)NC(=O)CCc1ccccc1`, the IC50 (in test [1]; against Pepsin A [2]) was above 3000 µM each time.
Take `N[S+]([O-])(CCc1ccccc1)=NCC(=O)OCc1ccccc1` (configuration not stated): the IC50 in test [1] is above 5000 µM; against Pepsin A [2], 700 µM.
As for `COC(=O)[C@H](Cc1ccccc1)N=[S+](N)([O-])CCc1ccccc1` (some centres not stated), the concentration for half-maximal inhibition (IC50) at Pepsin A [5] was 700 µM; in test [6], above 5000 µM; in test [7] it was 1000 µM; against Pepsin A [8], 700 µM.
